The subject of one assay is HIV-1MMVP899-87. Briefly: Inhibition of clinical isolate HIV-1M MVP899-87 in PBMCs. It counts as cell-based. The following applies: PBMC. From the text: (§1) Clinical isolates represented the following HIV genotypes: HIV-1MMVP899-87: HIV-type 1, Major group; HIV-1OMVP5180-91: HIV-type 1, Outlier group; HIV-2MVP10668-93: HIV-type 2; HIV-1V13-03413B: HIV-type 1, Major group/B-clade, isolate with multiple drug-resistance mutations. Depicted are the means of three independent experiments with biological triplicates (n = 3; m = 3) and standard deviations (SD).
(§2) Isolation of primary clinical HIV-isolates HIV-1MMVP899-87, HIV-1OMVP5180-91, HIV-1V13-03413B and HIV-2MVP10668-93 is described in[43]. The HIV-1 M group/B-clade isolate (HIV-1V13-03413B) was isolated from a patient with virological treatment failure. Clinical isolates were produced from HIV infected H9 cells as described.
(§3) To evaluate anti-HIV efficacies of test compounds in primary human target cells, stimulated PBMCs were seeded in 96-well plates at a density of 500,000 cells per well, different #7concentrations of the compound (serial dilutions) and virus inoculum (MOI of 0.5) added to the PBMCs and cultures incubated for 48 h. Infectious virus production was quantified by transferring 35 µl of supernatant from the PBMC cultures to LC5-RIC cells, seeded in black 96-well plates one day earlier. LC5-RIC cultures were then incubated for 72 h and analysed for DsRed1 reporter expression and anti-HIV activity calculated as described for the EASY-HIT assay.

The subject of a further assay is HIV-1OMVP5180-91. The assay can be described thus: Inhibition of clinical isolate HIV-1O MVP5180-91 in PBMCs. It counts as cell-based. The following applies: PBMC, HIV-type 1, Outlier group.
Source text: as §1, §2, §3

In a further assay the test system is PBMC. The assay can be described thus: CellTiter-Glo 2.0 cell viability assay in PBMC. It counts as cell-based, human. Particulars: PBMC. The method, then:
The following assays were used to profile cell safety of compound treatment in HIV-exposed cultures (LC5-RIC or PBMC): (1) CellTox^TM Green Cytotoxicity Assay, Promega, measures binding of a fluorescent dye to DNA of cells with impaired membrane integrity; (2) CellTiter-Glo® 2.0 Assay, Promega, which measures the amount of ATP in viable cells after lysis using an assay with luminescence read-out. Cells were plated into black 96-well plates followed by overnight incubation at 37 °C, 5% CO2. Compounds dissolved in DMSO were screened at multiple concentrations from 0.6 to 10,000 nM at a final DMSO concentration of 0.04% followed by additional 48 h incubation. Both assays were performed according to manufacturer’s recommendations and consecutively in the above mentioned order. Cells were washed once with PBS between the assays.

Assay [1] deals with T1, recombinant HIV-1 Protease (Human immunodeficiency virus type 1 group M subtype B, UniProt P04585).
T1 construct: 100 ng recombinant HIV-1 Protease protein (Abcam) was incubated with compounds; purchased Abcam
Briefly: HIV Protease Activity Assay (fluorogenic substrate). It counts as biochemical. Particulars: 10 µM. How it is done:
HIV Protease Activity Assay. 100 ng recombinant HIV-1 Protease protein (Abcam) was incubated with compounds diluted in HIV Protease Activity Assay Buffer (0.1 M sodium acetate, 1.0 M sodium chloride, 1.0 mM ethylenediaminetetraacetic acid (EDTA), 1.0 mM dithiothreitol (DTT), 10% dimethyl sulfoxide (DMSO), 1 mg/ml bovine serum albumin (BSA), pH 7.4) for 1 h at room temperature in the dark. After the designated incubation time the mixtures were added to a 2.5 µM solution of HIV Protease Substrate 1 (Sigma-Aldrich) in HIV Protease Activity Assay Buffer prepared in black 96-well plates. The substrate harbours the fluorophore EDANS (5-(2-aminoethylamino)-1-naphthalene sulfonate) and the acceptor chromophore DABCYL (4’-dimethylaminoazobenzene-4-carboxylate) on opposite sides of the cleavage site (Tyr-Pro). Cleavage of the substrate by the HIV-1 protease results in separation of DABCYL and EDANS, eliminating the quenching effects on EDANS fluorescence at 490 nm. After an additional incubation time of 20 min at 37 °C the increase in fluorescence was measured using a fluorescence microplate reader at an excitation filter wavelength of 340 nm and an emission filter wavelength of 490 nm. Saquinavir was used as reference compound.

The test system of another assay is PBMC proteome. Briefly: Proteomics (LC-MSMS) of PBMCs treated with compound #7, with or without HIV exposure. It counts as cell-based, human. Particulars: PBMCs from three donors; ≥2-fold change. The method, then:
Stimulated PBMCs or CD4+ cells (5,000,000 cells) were seeded into 12-well plates before compound treatment and inoculation with HIV-1LAI at an MOI of 0.5, followed by 48 h incubation at 37 °C, 5% CO2. HIV inhibition was confirmed by quantifying infectious virus production in LC5-RIC cells as described above. Protein lysates were prepared from cells harvested, washed with PBS and lysed by incubating the cells for 10 min at 4 °C in lysis buffer (100 mM Tris-HCl pH 8.3, 150 mM NaCl, 1% glycerol, 1% NP-40, 0.5% deoxycholate, 0.1% SDS, 0.1% Triton-X100) and centrifuged for 20 min at 4 °C, 16,000 g to clear protein lysates. Protein concentrations were determined by using the Pierce^TM BCA Protein Assay Kit (ThermoFisher Scientific) according to manufacturer’s protocol. The proteomes of PBMCs from three different donors were analysed by LC-MSMS and data enrichment analysis was carried out using GeneRanker (Intrexon). For detailed information see Supplementary Methods.
After measuring the protein concentration of the cell lysates equal total protein amounts (10 µg per sample) were proteolysed with trypsin as described ^4 by a modified filter-aided sample preparation (FASP) procedure ^5.
Data analysis. The results from three donors were regarded as biological replicates. […]

For another assay, the system named is HIV-2MVP10668-93. The assay can be described thus: Inhibition of clinical isolate HIV-2 MVP10668-93 in PBMCs. It counts as cell-based, HIV-type 2. The following applies: Human immunodeficiency virus 2, PBMC.
Source text: as §1, §2, §3

In assay [2] the test system is HIV Gag protein (Gag-p24). The assay can be described thus: Intracellular Gag by p24 ELISA and western blot in LC5-RIC cells. The following applies: HIV-1LAI, 48 h. It counts as cell-based. The method, then:
LC5-RIC cells were plated, treated with compounds and inoculated with virus as described for Alu-PCR above. Cells were harvested, washed with PBS and incubated in 200 µl of PBS + 5% Triton X-100 for 5 min at room temperature. Cell lysates were centrifuged for 5 min at 400 g, supernatants collected, diluted 1:10,000 and Gag-p24 was detected by p24 Antigen Capture Assay (ABLinc) according to the manufacturer’s protocol.
Western blot analysis for Gag-p24 and GAPDH was performed as described in[48], using the primary antibodies anti-hGAPDH (ThermoFisher Scientific) and anti-HIV-p24 (Calbiochem) as well as the secondary anti-mouse-peroxidase antibody (Jackson ImmunoResearch), all diluted 1:10,000. Bands were visualized by enhanced chemiluminescence and detected by Fusion FX Chemiluminescence detector. Resulting blot images were processed with Fusion FX Software (adjusting brightness and contrast) and Microsoft PowerPoint (labelling and cropping).
For orientation: ELISA stands for enzyme-linked immunosorbent assay.

On to `COc1oc(C2C/C(=C/C(C)=C/c3ccc(C(F)(F)F)cc3)CO2)c(C)c(=O)c1C` (stereo not shown) [compound #7], for which the half-inhibitory concentration (IC50) (commonly the concentration that inhibits the measured activity by half) was determined as 4.11 nM in the assay with HIV-1MMVP899-87 (read-out: IC50 value, HIV-1M MVP899-87, HIV-type 1, Major group); 2.88 nM in the assay on HIV-1OMVP5180-91; 3.88 nM with HIV-2MVP10668-93 (read-out: IC50 value, HIV-2 MVP10668-93). Also, the IC90 (usually the concentration needed for an effect of 90%) in the assay on HIV-1MMVP899-87 (read-out: IC90 value, HIV-1M MVP899-87, HIV-type 1, Major group) came to 12.3 nM; in the assay with HIV-1OMVP5180-91 it was 8.65 nM; in the assay on HIV-2MVP10668-93 (read-out: IC90 value, HIV-2 MVP10668-93), 11.7 nM. The “selectivity index (CC50/IC50)” value in the assay with PBMC is given as greater than 970. In addition, the “inhibitory effect on Protease activity” value in assay [1] is “no inhibitory effects”. Besides, in the assay with PBMC proteome, the “proportion of differentially expressed proteins (of total proteins detected)” value is less than 10%. Also, the “intracellular Gag levels” value in assay [2] is on record as “strongly suppressed production of Gag”.

These data come from publication PMC6987146, “Potent inhibition of HIV replication in primary human cells by novel synthetic polyketides inspired by Aureothin” (Scientific Reports, 2020).
